Experiment [1] addresses T1, PRKG1 (Homo sapiens, UniProt Q13976).
T1 sequence (Q13976 1-671): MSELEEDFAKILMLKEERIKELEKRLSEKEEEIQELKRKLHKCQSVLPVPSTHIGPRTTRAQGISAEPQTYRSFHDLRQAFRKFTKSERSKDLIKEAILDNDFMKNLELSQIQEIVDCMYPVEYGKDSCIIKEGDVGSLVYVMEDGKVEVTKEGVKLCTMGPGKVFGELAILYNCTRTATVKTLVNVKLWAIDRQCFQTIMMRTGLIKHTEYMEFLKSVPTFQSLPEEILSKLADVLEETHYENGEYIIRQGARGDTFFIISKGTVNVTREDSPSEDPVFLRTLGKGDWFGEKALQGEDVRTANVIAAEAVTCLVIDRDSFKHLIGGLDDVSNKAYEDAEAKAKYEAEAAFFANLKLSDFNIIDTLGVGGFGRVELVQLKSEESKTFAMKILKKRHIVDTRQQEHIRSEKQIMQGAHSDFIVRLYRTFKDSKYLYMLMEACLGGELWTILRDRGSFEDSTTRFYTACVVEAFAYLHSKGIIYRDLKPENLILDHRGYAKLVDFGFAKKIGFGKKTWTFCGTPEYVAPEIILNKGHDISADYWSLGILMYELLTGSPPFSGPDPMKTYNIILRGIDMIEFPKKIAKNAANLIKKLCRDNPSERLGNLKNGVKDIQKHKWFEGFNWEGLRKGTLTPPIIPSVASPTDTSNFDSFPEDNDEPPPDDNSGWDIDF
As to the kind of experiment: Large panel kinase profiling. To be noted: 1 μM test article, 1 mM ATP. It is filed as biochemical. The method, boiled down: (§1)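 With ATP fixed at 1 mM, each kinase was exposed to 1 μM compound in a PhosphoSens CSox-Sensor reaction. Sealed plates were incubated at 30° C. and read in kinetic mode.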

Experiment [2] has as its target T2, TAOK2 (Homo sapiens, UniProt Q9UL54).
T2 construct: AssayQuant Technologies, Inc. (contract assay)
T2 sequence (Q9UL54 1-1235): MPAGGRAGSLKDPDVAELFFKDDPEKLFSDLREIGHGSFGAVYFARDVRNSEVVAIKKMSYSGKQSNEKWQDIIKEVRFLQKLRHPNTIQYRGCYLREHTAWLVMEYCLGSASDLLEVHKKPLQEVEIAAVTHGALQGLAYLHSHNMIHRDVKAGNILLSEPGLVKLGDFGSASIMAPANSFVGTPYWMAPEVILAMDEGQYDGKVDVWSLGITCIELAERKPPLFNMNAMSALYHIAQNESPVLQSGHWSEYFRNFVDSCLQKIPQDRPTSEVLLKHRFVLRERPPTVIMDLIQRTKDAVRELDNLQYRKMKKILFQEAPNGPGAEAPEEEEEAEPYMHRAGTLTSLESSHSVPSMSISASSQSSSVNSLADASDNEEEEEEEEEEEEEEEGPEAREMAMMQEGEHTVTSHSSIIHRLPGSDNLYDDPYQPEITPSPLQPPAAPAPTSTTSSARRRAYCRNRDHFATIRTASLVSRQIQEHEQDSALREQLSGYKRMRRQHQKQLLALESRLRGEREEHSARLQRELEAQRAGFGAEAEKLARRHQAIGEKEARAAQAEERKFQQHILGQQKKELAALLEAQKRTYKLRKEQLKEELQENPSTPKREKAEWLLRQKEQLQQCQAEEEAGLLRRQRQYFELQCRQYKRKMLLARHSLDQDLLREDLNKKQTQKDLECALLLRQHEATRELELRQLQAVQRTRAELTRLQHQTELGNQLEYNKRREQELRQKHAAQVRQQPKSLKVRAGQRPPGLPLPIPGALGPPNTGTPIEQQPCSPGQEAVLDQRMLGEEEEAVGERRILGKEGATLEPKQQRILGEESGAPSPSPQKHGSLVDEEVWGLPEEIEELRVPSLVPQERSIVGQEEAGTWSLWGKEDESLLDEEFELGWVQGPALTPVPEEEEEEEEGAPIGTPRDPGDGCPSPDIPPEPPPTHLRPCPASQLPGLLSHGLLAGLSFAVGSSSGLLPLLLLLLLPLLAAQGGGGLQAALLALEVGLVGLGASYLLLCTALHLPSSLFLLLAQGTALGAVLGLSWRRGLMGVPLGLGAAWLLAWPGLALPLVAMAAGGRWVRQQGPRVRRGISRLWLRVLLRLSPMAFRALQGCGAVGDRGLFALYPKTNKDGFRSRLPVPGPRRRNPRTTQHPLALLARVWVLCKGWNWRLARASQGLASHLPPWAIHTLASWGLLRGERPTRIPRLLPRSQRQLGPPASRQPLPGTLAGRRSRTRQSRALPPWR
The experiment is described as follows: Large panel kinase profiling. It is filed as biochemical. To be noted: 1 μM test article, 1 mM ATP. The method in brief:
as §1

By inhibition is commonly meant the drop in the measured response relative to a control, in per cent. For `C=CC(=O)N1CCC[C@@H](c2c(F)cc(C(N)=O)c3[nH]c4c(c23)CCC4)C1` [Compound 10-2, (S)-8-(1-acryloylpiperidin-3-yl)-7-fluoro-1,2,3,4-tetrahydrocyclo-penta[b]indole-5-carboxamide], the inhibition at 1 µM in experiment [1] was -5.8%; in experiment [2] it was 11.4%.
On to `C=CC(=O)N1CCCC(c2c(F)cc(C(N)=O)c3[nH]c4c(c23)CCCCC4)C1` (single isomer, unassigned) [Compound 5-6], for which the inhibition at 1 µM in experiment [1] was -2.8%; in experiment [2] it was -14.5%.
The corresponding values for `C=CC(=O)N1CCC[C@@H](c2c(F)cc(C(N)=O)c3[nH]c4c(c23)CC2(CC4)CC2)C1` [Compound 6-2, (S)-5-(1-acryloylpiperidin-3-yl)-6-fluoro-1,2,4,9-tetrahydrospiro[carbazole-3,1′-cyclopropane]-8-carboxamide] are 0% and -24.8%.

For the origin of these results see patent US20220009920A1 (GB005, Inc., priority 2020, published 2022).
